By TGI is commonly meant the concentration giving total growth inhibition. High values mean less potent growth arrest, low ones more potent growth arrest. The GI50 is the concentration at which growth is held to half of that of the control.

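Cells were grown in 96-well plates and exposed to each compound for 48 hours at five concentrations; endpoints were interpolated linearly between bracketing concentrations, or set to the highest concentration if not reached. GI50 = concentration required for 50% inhibition of growth. Definition used: TGI = concentration required for complete inhibition of growth.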

Common to all, as to experiment: DTP human tumour cell line panel, 48 h
Assay [1] has as its system HL-60(TB) leukemia.
Assay [2] deals with COLO 205 colon.
Assay [3] relates to NCI-H226 lung.
In assay [4] the test system is HOP-92 NSCLC.
Assay [5] relates to SF-295 CNS.
Assay [6] has as its system SK-MEL-28 melanoma.
Assay [7] concerns CAKI-1 renal.
The subject of assay [8] is HCT-116 colon.
The test system of assay [9] is OVCAR-5 ovarian.
The subject of assay [10] is A498 renal.

With `CCOC(=O)CCc1cc(=O)oc2cc(O)cc(O)c12`, the TGI in [1], in assay [2], in [3], in assay [4], in assay [5] and in [6] was over 100 µM in each case. Moreover, the TGI in assay [7], in assay [8], in assay [9] and in assay [10] was over 100 µM each time.

`O=C1c2c(c3c4ccccc4n(CCCCCCBr)c3c3[nH]c4ccccc4c23)C(=O)N1O`: the GI50 is 2080 nM in [1]; 1.97 µM in [2]; 3.7 µM in [3]; 2220 nM in [4]; 2.75 µM in assay [5]; 2950 nM in assay [6]. The GI50 in [7] is 2.86 µM; in [8], 2.15 µM; in assay [9], 3.22 µM; in [10] it was 2890 nM. The TGI in [1] was 4.63 µM; in [2] it was 4.7 µM; in assay [3], 16.4 µM; in [4], 6.7 µM; in [5], 9.01 µM; in assay [6] it was 15.7 µM. For the same compound, the concentration for total growth inhibition (TGI) amounted to 9.5 µM in assay [7], 10.8 µM in assay [8], 17.4 µM in [9] and 9.14 µM in assay [10].

For the compound `Cc1ccc(S(=O)(=O)N(CCOc2ccc(/C(N)=N/Cl)cc2)CCOc2ccc(/C(N)=N\Cl)cc2)cc1`, the GI50 in [1] was 7650 nM; in assay [2], 11 µM; in [3], 59.6 µM; in [4] it was 17200 nM; in [5], 7.71 µM; in assay [6], 25700 nM. For the same compound, the GI50 in [7] is 76.6 µM; in [8], 12.7 µM; in [9], over 100 µM; in [10], 52300 nM. In addition, the total growth inhibition concentration (TGI) was 48.6 µM in [1]; 28.8 µM in assay [2]; over 100 µM in assay [3]; 89.3 µM in assay [4]; 42.9 µM in assay [5]; over 100 µM in [6]. Further, the total growth inhibition concentration (TGI) in [7], in assay [8], in assay [9] and in assay [10] was over 100 µM each time.

For the compound `COC1C(CN[N+](=O)CC2OC3OC(C)(C)OC3C2OC)OC2OC(C)(C)OC21` (stereo not given), the total growth inhibition concentration (TGI) in [1], in assay [2], in assay [3], in assay [4], in [5] and in [6] was over 100 µM throughout. Also, the TGI in [7], in assay [8], in assay [9] and in assay [10] was over 100 µM each time.

Regarding `COC(=O)c1cc2c3ccccc3[nH]c2c2ncccc12`, the GI50 was over 100000 nM in [1]; over 100 µM in assay [2]; over 100 µM in assay [3]; over 100000 nM in [4]; 36.9 µM in assay [5]; 85800 nM in assay [6]. Also, the GI50 in assay [7] was 8.12 µM; in assay [8] it was 54.9 µM; in assay [9], 32.3 µM; in assay [10] it was over 100000 nM. Further, the total growth inhibition concentration (TGI) in [1], in assay [2], in assay [3], in assay [4], in [5] and in assay [6] was over 100 µM in each case. The concentration for total growth inhibition (TGI) in assay [7], in [8], in assay [9] and in assay [10] was over 100 µM throughout.

On to `COC(=O)CCCCN=Cc1c(O)c(O)c(C(C)C)c2cc(C)c(-c3c(C)cc4c(C(C)C)c(O)c(O)c(C=NCCCCC(=O)OC)c4c3O)c(O)c12`, for which the GI50 in assay [1] is 1130 nM; in assay [2], 0.85 µM; in assay [3], 1.3 µM; in [4], 782 nM; in [5] it was 0.83 µM; in assay [6], 1770 nM. The GI50 in [7] is 1.17 µM; in assay [8], 0.904 µM; in [10] it was 1790 nM. In addition, the TGI in assay [1] is 22.8 µM; in assay [2] it was 2.44 µM; in assay [3], 8.38 µM; in assay [4], 2.64 µM; in [5] it was 7.92 µM; in assay [6], over 32.5 µM. For the same compound, the concentration for total growth inhibition (TGI) in [7] is over 32.5 µM; in assay [8] it was 4.98 µM; in assay [10], over 32.5 µM.

For `O=C1/C(=C/c2ccc(Cl)cc2Cl)N=C(c2ccccc2)N1Cc1ccco1`, the GI50 in assay [1] is 18300 nM; in [3] it was 23.9 µM; in assay [4], 20700 nM; in assay [5], 22.2 µM; in assay [7] it was 30.2 µM; in [8] it was 20.7 µM. The results for the GI50 in assay [9] and in assay [10] were 34.5 µM and 22300 nM, respectively. Further, the total growth inhibition concentration (TGI) in assay [1] was determined as 52.3 µM; in assay [3], 67.6 µM; in assay [4] it was 47.4 µM; in assay [5], 45.9 µM; in assay [7], 50.6 µM; in [8], 47.1 µM. In addition, the TGI was over 100 µM in [9] and 61 µM in assay [10].

`OCCC1(O)CCC(O)CC1` (stereo not given): the TGI in assay [1], in assay [2], in [3], in [4], in [5] and in [6] was over 100 µM throughout. The TGI in assay [8], in assay [9] and in [10] was over 100 µM in each case.

Turning to `N#CC(C(=N/O)/C(=N/O)C(C#N)c1ccc(Cl)cc1)c1ccc(Cl)cc1` (stereo not given), the TGI in assay [2], in assay [3], in assay [4], in assay [5], in assay [6] and in [7] was over 100 µM each time. The total growth inhibition concentration (TGI) in assay [8], in assay [9] and in [10] was over 100 µM throughout.

For the compound `Cc1cc2c(cc1C)[n+](=O)c(C(=O)CC(=O)C(=O)Nc1c(C(C)C)cccc1C(C)C)c(C)n2[O-]`, the TGI in assay [2], in assay [3], in assay [4], in [5], in [6] and in [7] was over 100 µM in each case. In addition, the TGI in assay [8], in assay [9] and in assay [10] was over 100 µM each time.

On to `COC(=O)C[C@H]1CCC2(OCCO2)[C@]1(C)C(=O)OC`, for which the TGI in assay [1], in assay [2], in [4], in assay [5], in [6] and in [7] was over 100 µM throughout. Also, the total growth inhibition concentration (TGI) in assay [8], in assay [9] and in assay [10] was over 100 µM throughout.

For the compound `COC(=O)C(/C(=N/NC(N)=O)C(=O)Nc1ccc(C)cc1)c1nc2ccc([N+](=O)[O-])cc2[nH]c1=O` (stereo not given), the TGI in assay [3], in assay [4], in assay [5], in assay [6], in assay [7] and in [8] was over 100 µM throughout. Also, the TGI in assay [9] and in assay [10] was over 100 µM each time.

On to `CSc1cc(N=Nc2nc3ccccc3s2)c2ccccc2c1O`, for which the GI50 in assay [1] is 906 nM; in assay [2] it was 14.2 µM; in assay [4], 10100 nM; in assay [5], 11.5 µM; in [6] it was 8010 nM; in [7], 10.1 µM. Besides, the GI50 is 7.3 µM in assay [8], 16.1 µM in assay [9] and 23300 nM in [10]. Further, the concentration for total growth inhibition (TGI) in assay [1] is 25.5 µM; in [2], over 50 µM; in assay [4] it was over 50 µM; in [5], 27.6 µM; in assay [6] it was 18.6 µM; in assay [7] it was 20.3 µM. Moreover, the TGI in assay [8] is 29.3 µM; in assay [9] it was 28.7 µM; in assay [10], 45.5 µM.

With `COc1ccccc1C1C(C(=O)Nc2ccccc2)=C(C)NC(C)=C1C(=O)Nc1ccccc1`, the TGI in [2] is 65.2 µM; in [3] it was over 100 µM; in [4], over 100 µM; in assay [5], over 100 µM; in assay [6], over 100 µM; in assay [7], over 100 µM. For the same compound, the figures for the TGI in assay [8], in assay [9] and in [10] were over 100 µM, over 100 µM and 82.5 µM, respectively.

With `Cn1cc(-c2cnc3ccc(NC(=O)Nc4ccc(F)c(Br)c4)cc3n2)cn1`, the GI50 was 1.59 µM in assay [2]; 1.52 µM in assay [3]; 1600 nM in [4]; 1.89 µM in [5]; 1900 nM in assay [6]; 2.05 µM in assay [7]. The GI50 in assay [8] is 1.87 µM; in assay [9] it was 1.94 µM; in assay [10] it was 1510 nM. The total growth inhibition concentration (TGI) amounted to 3.24 µM in assay [2]; 3.64 µM in [3]; 4.41 µM in assay [4]; 3.73 µM in assay [5]; 3.76 µM in assay [6]; 5.57 µM in assay [7]. Moreover, the values for the concentration for total growth inhibition (TGI) in assay [8], in assay [9] and in assay [10] were 3.75 µM, 4.53 µM and 4.04 µM, respectively.

As to `O=C1CNCCCN2CCN(CCCNCC(=O)Nc3ccc(cc3)S(=O)(=O)c3ccc(cc3)NC(=O)CNCCCN3CCN(CCCNCC(=O)Nc4ccc(cc4)S(=O)(=O)c4ccc(cc4)N1)CC3)CC2`, the TGI is 96.9 µM in assay [2]; over 73.6 µM in assay [3]; 60.6 µM in [4]; over 62.6 µM in [5]; over 56.8 µM in [6]; 99.2 µM in [7]. The TGI was over 80.4 µM in assay [8], over 77.2 µM in assay [9] and 47.1 µM in assay [10].

For `CCN(CC)c1c(C(=O)/C=C/c2ccccc2)c(-c2ccccc2)nn(C)c1=O`, the TGI in assay [1], in [2], in [3], in [4], in assay [5] and in assay [6] was over 100 µM each time. Besides, the TGI in assay [7], in assay [9] and in assay [10] was over 100 µM in each case.

With `CCCCCCCCCCCCCC(=O)OC1CC(=O)OC1CO` (stereo not given), the TGI in assay [1] was 63.9 µM; in assay [2], over 100 µM; in [4] it was 43.1 µM; in assay [5], 45.5 µM; in assay [7], over 100 µM; in [8], over 100 µM. Besides, the total growth inhibition concentration (TGI) in [9] and in assay [10] was over 100 µM throughout.

Turning to `O=[N+]([O-])/C=C\c1ccc(Cl)c(Cl)c1`, the GI50 in [1] is 2150 nM; in [2] it was 3.48 µM; in assay [3], 12 µM; in [4] it was 1870 nM; in [5], 1.83 µM; in assay [6], 2480 nM. Moreover, the GI50 in assay [7] was 1.32 µM; in assay [9] it was 8.89 µM; in assay [10], 667 nM. The TGI in [1] is 10.5 µM; in assay [2], 12.8 µM; in assay [3], 27.9 µM; in assay [4], 5.01 µM; in assay [5], 3.73 µM; in assay [6] it was 6.54 µM. Also, the total growth inhibition concentration (TGI) turned out to be 2.88 µM in assay [7], 31.3 µM in [9] and 3.81 µM in assay [10].

As to `N#CC1(Cc2ccc(N)cc2)c2ccccc2C=CN1C(=O)c1ccccc1` (stereo not given), the TGI was 44 µM in assay [1]; 85.7 µM in assay [2]; over 100 µM in assay [3]; over 100 µM in assay [4]; over 100 µM in [5]; over 100 µM in assay [6]. The TGI in assay [8], in assay [9] and in [10] was over 100 µM in each case.

Consider `CCCCN(CCCC)C(=O)C(=O)C(C#N)c1ccc(C)cc1` (stereo not given), for which the concentration for total growth inhibition (TGI) in assay [1], in assay [3], in [4], in assay [5], in assay [6] and in [7] was over 100 µM each time. In addition, the total growth inhibition concentration (TGI) in assay [8], in [9] and in assay [10] was over 100 µM in each case.

The values are drawn from PubChem BioAssay (NCI).
